Experimental data taken from ChEMBL document CHEMBL1144802, “Cytotoxic xanthones from Psorospermum molluscum from the Madagascar rain forest” (J Nat Prod, 2008).

Key:
HCT-116 = test: Cytotoxicity against human HCT116 cells; type: functional, cell-based
A2780 = test: Cytotoxicity against human A2780 cells; type: functional, cell-based
ABAE = test: Cytotoxicity against bovine ABAE cells; type: functional, cell-based, Bos taurus
SK-BR-3 = test: Cytotoxicity against human SKBR3 cells; type: functional, cell-based

## O=c1c2c(O)cccc2oc2ccc3c(c12)CC(C1(CO)CO1)O3 (configuration not stated) [PSOROXANTHIN]
HCT-116
  IC50: 1000 nM
A2780
  IC50: 330 nM
ABAE
  IC50: 102 nM

## O=c1c2c(O)cccc2oc2ccc3c(c12)CC(C(O)(CO)CCl)O3 (configuration not stated) [PSOROXANTHIN CHLOROHYDRIN]
HCT-116
  IC50: 68 nM
A2780
  IC50: 42 nM
SK-BR-3
  IC50: 2000 nM
ABAE
  IC50: 4 nM
